Laboratory results: patent publication US9493432B2, “Cyclopentylbenzamide derivatives and their use for the treatment of psychotic and cognitive disorders” (Takeda Pharmaceutical Company Limited, priority 2013, dated 2016)

Tests used:
[1] = target: human orexin receptor 2 (Homo sapiens (Human), UniProt O43614); assay: Orexin antagonist activity, intracellular calcium FLIPR assay (orexin receptor 2); assay type: cell-based; conditions: RBL-2H3 cells stably expressing human orexin receptor 2; Ca2+ dye FLIPR; compound 15 minutes before orexin-A at approximately 80% maximal response; read-out: Human Orexin2R IC50
Description: (§1) Orexin antagonist activity was determined by measuring changes in intracellular calcium levels using a Ca^2+ sensitive fluorescent dye. The changes in fluorescent signal were monitored by Fluorescent Imaging Plate Reader (FLIPR™) technology available from Molecular Devices, LLC, U.S.A. Orexin mediated increases in intracellular Ca^2+ concentration were readily detected upon activation with orexin-A. Twenty-four hours prior to the assay, RBL-2H3 cells stably expressing either human orexin receptor 1 or human orexin receptor 2 were seeded in cell culture medium in black, clear-bottom 384-well plates (commercially available from Corning Inc., U.S.A.) and grown overnight at 37° C., 5% CO2. On the day of the assay, cell culture media was removed and cells were loaded with Calcium 5 Dye (commercially sold by Molecular Devices, LLC, U.S.A.) for 1 hour at 37° C., 5% CO2. Test compounds (at 10 point half log concentration response curves from 10 μM) were added to cells for 15 minutes prior to the addition of orexin-A to all wells, to achieve a final concentration that produces approximately an 80% maximal response. The IC50 values were determined from ten point concentration response curves. Curves were generated using the average of two wells for each data point.

[2] = target: human orexin receptor 1 (Homo sapiens (Human), UniProt O43613); assay: Orexin antagonist activity, intracellular calcium FLIPR assay (orexin receptor 1); assay type: cell-based; conditions: RBL-2H3 cells stably expressing human orexin receptor 1; Ca2+ dye FLIPR; compound 15 minutes before orexin-A at approximately 80% maximal response; read-out: Human Orexin1R IC50
Description: as §1

Chain of human orexin receptor 1 (O43613 whole entry): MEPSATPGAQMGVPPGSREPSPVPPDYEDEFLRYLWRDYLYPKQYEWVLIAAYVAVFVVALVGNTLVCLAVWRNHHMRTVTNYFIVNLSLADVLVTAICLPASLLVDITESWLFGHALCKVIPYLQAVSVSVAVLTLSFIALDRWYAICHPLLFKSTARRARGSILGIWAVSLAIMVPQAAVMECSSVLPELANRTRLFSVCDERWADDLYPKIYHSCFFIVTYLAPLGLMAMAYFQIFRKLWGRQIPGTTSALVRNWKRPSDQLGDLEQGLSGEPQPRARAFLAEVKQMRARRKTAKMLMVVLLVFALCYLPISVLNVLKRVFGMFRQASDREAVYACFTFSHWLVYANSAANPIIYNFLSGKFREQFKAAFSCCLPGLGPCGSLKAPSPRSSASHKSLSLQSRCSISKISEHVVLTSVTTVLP
Chain of human orexin receptor 2 (O43614 whole entry): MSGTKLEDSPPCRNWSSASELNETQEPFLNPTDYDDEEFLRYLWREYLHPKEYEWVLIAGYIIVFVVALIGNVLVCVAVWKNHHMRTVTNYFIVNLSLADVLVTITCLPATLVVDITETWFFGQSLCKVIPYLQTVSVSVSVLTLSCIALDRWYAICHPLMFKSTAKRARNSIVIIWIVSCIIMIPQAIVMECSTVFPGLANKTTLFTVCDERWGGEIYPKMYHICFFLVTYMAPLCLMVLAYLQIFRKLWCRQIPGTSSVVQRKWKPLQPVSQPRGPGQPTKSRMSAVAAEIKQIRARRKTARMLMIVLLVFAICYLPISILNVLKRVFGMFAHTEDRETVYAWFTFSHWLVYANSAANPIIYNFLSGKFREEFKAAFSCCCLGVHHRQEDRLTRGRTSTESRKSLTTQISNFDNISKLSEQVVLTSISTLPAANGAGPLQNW

Compound	IC50 [1] [nM]	IC50 [2] [nM]
5-Methyl-N-((1S,2S)-2-(quinoxalin-2-ylamino)cyclopentyl)-2-(2H-1,2,3-triazol-2-yl) benzamide [Example 21]	5100	–
COc1cccc(OC)c1C(=O)N[C@@H]1COC[C@H]1Nc1nc2ccc(F)cc2s1 (relative stereo) [Example 65, trans-N-{4-[(6-Fluoro-1,3-benzothiazol-2-yl)amino]oxolan-3-yl}-2,6-dimethoxybenzamide]	> 10000	29
Cc1ccc(-n2nccn2)c(C(=O)N[C@@H]2COC[C@@H]2Cc2nc3ccccc3s2)c1 (relative stereo) [Example 102, cis-N-[4-(1,3-Benzothiazol-2-ylmethyl)oxolan-3-yl]-5-methyl-2-(2H-1,2,3-triazol-2-yl)benzamide]	> 10000	79
Cc1ccc(-n2nccn2)c(C(=O)NC2CCCC2Cc2ccc3ccccc3n2)c1 (single isomer, unassigned) [Example 61, 5-Methyl-N-[2-(quinolin-2-ylmethyl)cyclopentyl]-2-(2H-1,2,3-triazol-2-yl)benzamide]	> 10000	35
Cc1ccc(-n2nccn2)c(C(=O)NC2CCCC2Cc2ccc3ccccc3n2)c1 (single isomer, unassigned) [Example 62, 5-Methyl-N-[2-(quinolin-2-ylmethyl)cyclopentyl]-2-(2H-1,2,3-triazol-2-yl)benzamide]	> 10000	> 10000
O=C(NC1COCC1Nc1nc2ccc(F)cc2s1)c1ccccc1-n1nccn1 (single isomer, unassigned) [Example 100, trans-N-{4-[(6-Fluoro-1,3-benzothiazol-2-yl)amino]oxolan-3-yl}-2-(2H-1,2,3-triazol-2-yl)benzamide]	> 10000	22
O=C(NC1COCC1Nc1nc2ccc(F)cc2s1)c1ccccc1-n1nccn1 (single isomer, unassigned) [Example 101, trans-N-{4-[(6-Fluoro-1,3-benzothiazol-2-yl)amino]oxolan-3-yl}-2-(2H-1,2,3-triazol-2-yl)benzamide]	3800	730
O=C(NC1CC(F)(F)CC1Nc1nc2ccc(F)cc2s1)c1ccccc1-n1nccn1 (single isomer, unassigned) [Example 103, N-{4,4-Difluoro-2-[(6-fluoro-1,3-benzothiazol-2-yl)amino]cyclopentyl}-2-(2H-1,2,3-triazol-2-yl)benzamide]	627	266
O=C(NC1CC(F)(F)CC1Nc1nc2ccc(F)cc2s1)c1ccccc1-n1nccn1 (single isomer, unassigned) [Example 104, N-{4,4-Difluoro-2-[(6-fluoro-1,3-benzothiazol-2-yl)amino]cyclopentyl}-2-(2H-1,2,3-triazol-2-yl)benzamide]	4500	13
O=C(NC1CC(F)(F)CC1Nc1nc2ccc(Cl)cc2s1)c1ccccc1-n1nccn1 (single isomer, unassigned) [Example 105, N-{2-[(6-Chloro-1,3-benzothiazol-2-yl)amino]-4,4-difluorocyclopentyl}-2-(2H-1,2,3-triazol-2-yl)benzamide]	3540	–
O=C(NC1CC(F)(F)CC1Nc1nc2ccc(Cl)cc2s1)c1ccccc1-n1nccn1 (single isomer, unassigned) [Example 106, N-{2-[(6-Chloro-1,3-benzothiazol-2-yl)amino]-4,4-difluorocyclopentyl}-2-(2H-1,2,3-triazol-2-yl)benzamide]	441	–
COc1cccc(OC)c1C(=O)NC1C[C@@H](O)CC1Nc1nc2ccc(Cl)cc2s1 (stereo in doubt) [Example 25, N-[(1S,2R,4R)-2-[(6-Chloro-1,3-benzothiazol-2-yl)amino]-4-hydroxycyclopentyl]-2,6-dimethoxybenzamide]	130	340
COc1cccc(OC)c1C(=O)N[C@H]1CC(F)C[C@H]1Nc1nc2ccc(Cl)cc2s1 (stereo in doubt) [Example 26, N-[(1S,2R)-2-[(6-Chloro-1,3-benzothiazol-2-yl)amino]-4-fluorocyclo-pentyl]-2,6-dimethoxybenzamide]	> 10000	64
Cc1ccccc1C(=O)NC1CCC[C@@H]1Nc1nc2ccc(F)cc2s1 (stereo in doubt) [Example 51, N-[(1S,2S)-2-[(6-Fluoro-1,3-benzothiazol-2-yl)amino]cyclopentyl]-2-methylbenzamide]	4000	250
O=C(NC1CCC[C@@H]1Nc1nc2ccc(F)cc2s1)c1c(Cl)cccc1Cl (stereo in doubt) [Example 52, 2,6-Dichloro-N-[(1S,2S)-2-[(6-fluoro-1,3-benzothiazol-2-yl)amino]-cyclopentyl]benzamide]	–	270
O=C(N[C@H]1CCCC1Nc1nc2ccc(F)cc2s1)c1ccccc1-n1nccn1 (stereo in doubt) [Example 75, N-[(1S,2R)-2-[(6-Fluoro-1,3-benzothiazol-2-yl)amino]cyclopentyl]-2-(2H-1,2,3-triazol-2-yl)benzamide]	260	5

Compound	IC50 [1] [nM]	IC50 [2] [nM]
O=C(NC1CCC[C@@H]1Nc1nc2ccncc2s1)c1ccccc1-n1nccn1 (stereo in doubt) [Example 97, N-[(1S,2S)-2-({[1,3]Thiazolo[5,4-c]pyridin-2-yl}amino)cyclopentyl]-2-(2H-1,2,3-triazol-2-yl)benzamide]	> 10000	780
Cc1noc(-c2ccccc2C(=O)NC2CCC[C@@H]2Nc2nc3ccc(F)cc3o2)n1 (stereo in doubt) [Example 99, N-[(1S,2S)-2-[(6-Fluoro-1,3-benzoxazol-2-yl)amino]cyclopentyl]-2-(3-methyl-1,2,4-oxadiazol-5-yl)benzamide]	> 10000	12
COc1cccc(OC)c1C(=O)N[C@H]1CCC[C@H]1Nc1cnc2ccccc2n1 [Example 1, 2,6-Dimethoxy-N-[(1S,2R)-2-[(quinoxalin-2-yl)amino]cyclopentyl]-benzamide]	98	0.84
COc1cccc(OC)c1C(=O)N[C@H]1CCC[C@@H]1Nc1cnc2ccccc2n1 [Example 2, 2,6-Dimethoxy-N-((1S,2S)-2-(quinoxalin-2-ylamino)cyclopentyl)benzamide]	6500	36
COc1cccc(OC)c1C(=O)N[C@H]1CCC[C@@H]1Nc1nc2ccc(F)cc2s1 [Example 3, N-[(1S,2S)-2-[(6-Fluoro-1,3-benzothiazol-2-yl)amino]cyclopentyl]-2,6-dimethoxybenzamide]	7600	4.2
COc1cccc(OC)c1C(=O)N[C@H]1CCC[C@@H]1Nc1nc2ccccc2s1 [Example 4, N-[(1S,2S)-2-[(1,3-Benzothiazol-2-yl)amino]cyclopentyl]-2,6-dimethoxybenzamide]	> 10000	12
COc1cccc(OC)c1C(=O)N[C@H]1CCC[C@H]1Nc1nc2ccccc2s1 [Example 5, N-[(1S,2R)-2-[(1,3-Benzothiazol-2-yl)amino]cyclopentyl]-2,6-dimethoxybenzamide]	510	12
Cc1ccc(-n2nccn2)c(C(=O)NC2CCCC2Cc2nc3ccc(Cl)cc3s2)c1 (centres unmarked) [Example 33, N-{2-[(6-Chloro-1,3-benzothiazol-2-yl)methyl]cyclopentyl}-5-methyl-2-(2H-1,2,3-triazol-2-yl)benzamide]	–	51
O=C(N[C@H]1CCC[C@@H]1Nc1nc2ccc(F)cc2s1)c1cc(F)ccc1-c1ncccn1 [Example 42, 5-Fluoro-N-[(1S,2S)-2-[(6-fluoro-1,3-benzothiazol-2-yl)amino]cyclopentyl]-2-(pyrimidin-2-yl)benzamide]	–	24
O=C(N[C@H]1CCC[C@@H]1Nc1nc2ccc(F)cc2s1)c1cc(F)ccc1-n1ccnn1 [Example 45, 5-Fluoro-N-[(1S,2S)-2-[(6-fluoro-1,3-benzothiazol-2-yl)amino]cyclopentyl]-2-(1H-1,2,3-triazol-1-yl)benzamide]	–	80
O=C(N[C@H]1CCC[C@@H]1Nc1nc2ccc(F)cc2s1)c1ccccc1OC(F)F [Example 55, 2-(Difluoromethoxy)-N-[(1S,2S)-2-[(6-fluoro-1,3-benzothiazol-2-yl)amino]-cyclopentyl]benzamide]	–	470
COc1cccc(C(=O)N[C@H]2CCC[C@@H]2Nc2nc3ccc(F)cc3s2)c1 [Example 56, N-[(1S,2S)-2-[(6-Fluoro-1,3-benzothiazol-2-yl)amino]cyclopentyl]-3-methoxybenzamide]	–	540
Cc1cccc(C(=O)N[C@H]2CCC[C@@H]2Nc2nc3ccc(F)cc3s2)c1 [Example 57, N-[(1S,2S)-2-[(6-Fluoro-1,3-benzothiazol-2-yl)amino]cyclopentyl]-3-methylbenzamide]	–	780
O=C(N[C@H]1CCC[C@@H]1Nc1nc2ccc(F)cc2s1)c1ccccc1C1CC1 [Example 58, 2-Cyclopropyl-N-[(1S,2S)-2-[(6-fluoro-1,3-benzothiazol-2-yl)amino]-cyclopentyl]benzamide]	–	870
O=C(N[C@H]1CCC[C@@H]1Nc1nc2ccc(Cl)cc2s1)c1ccccc1-n1nccn1 [Example 91, N-[(1S,2S)-2-[(6-Chloro-1,3-benzothiazol-2-yl)amino]cyclopentyl]-2-(2H-1,2,3-triazol-2-yl)benzamide]	4700	–
